From patent US7476670B2, “Purine derivatives, method for preparing, pharmaceutical compositions and novel use” (Aventis Pharma S.A., priority 2003, dated 2009)
Where a name gives a salt, the structure may show the parent alone.

These compounds were tested against CaCiv1 (Candida albicans, UniProt A0A1D8PH53) (assay: Assay for inhibition of CIV-CDK (CIV1) activity). Settings: not given.
Assay type: biochemical
Text: 1) Assay for Inhibition of CIV-CDK (CIV1) Activity
a) Preparation of the Reagents

CaCiv1, sequence (A0A1D8PH53 entry or part of it): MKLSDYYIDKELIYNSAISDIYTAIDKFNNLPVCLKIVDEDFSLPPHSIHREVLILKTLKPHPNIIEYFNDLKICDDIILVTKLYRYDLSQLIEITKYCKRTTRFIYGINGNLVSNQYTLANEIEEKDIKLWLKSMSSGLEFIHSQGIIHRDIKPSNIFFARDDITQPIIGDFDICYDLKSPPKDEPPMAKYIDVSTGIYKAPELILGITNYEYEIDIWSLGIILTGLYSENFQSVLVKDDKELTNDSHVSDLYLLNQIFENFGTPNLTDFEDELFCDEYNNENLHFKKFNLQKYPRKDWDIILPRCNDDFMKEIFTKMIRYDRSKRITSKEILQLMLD

Row | SMILES | IC50 [µM]
1 | N[C@H]1CC[C@H](Nc2nc(-n3ccc4ccccc43)c3nc[nH]c3n2)CC1 [Example 16, Trans-N-[6-(1H-indol-1-yl)-9H-purin-2-yl]-1,4-cyclohexanediamine dihydrochloride] | 0.31

Same assay, conditions: CaCiv1 with Cdk2 substrate, [33P]ATP, 30 min ambient temperature; read-out: IC50 as micromolar

Row | SMILES | IC50 [µM]
2 | CC(=O)c1ccc2c(c1)CCN2c1nc(N[C@H]2CC[C@H](N)CC2)nc2[nH]cnc12 [Example 39, Trans-1-[1-[2-[(4-aminocyclohexyl)amino]-9H-purin-6-yl]-2,3-dihydro-1H-indol-5-yl]ethanone] | 3.6
3 | N[C@H]1CC[C@H](Nc2nc(N3CCc4cc(NC(=O)Nc5ccc(Cl)c(Cl)c5)ccc43)c3nc[nH]c3n2)CC1 [Example 43, Trans-N-[1-[2-[(4-aminocyclohexyl)amino]-9H-purin-6-yl]-2,3-dihydro-1H-indol-5-yl]-N′-(3,4-dichlorophenyl)urea] | 4.4
4 | CN(C)c1ccc(NC(=O)Nc2ccc3c(c2)CCN3c2nc(N[C@H]3CC[C@H](N)CC3)nc3[nH]cnc23)cc1 [Example 45, Trans-N-[1-[2-[(4-aminocyclohexyl)amino]-9H-purin-6-yl]-2,3-dihydro-1H-indol-5-yl]-N′-[4-(dimethylamino)phenyl]urea] | 1.3
5 | N[C@H]1CC[C@H](Nc2nc(N3CCc4ccc(C(F)(F)F)cc43)c3nc[nH]c3n2)CC1 [Example 40, Trans-N-[6-[2,3-dihydro-6-(trifluoro-methyl)-1H-indol-1-yl)-9H-purin-2-yl]-1,4-cyclohexanediamine] | 0.2
6 | N[C@H]1CC[C@H](Nc2nc(N3CCc4ccc([N+](=O)[O-])cc43)c3nc[nH]c3n2)CC1 [Example 44, Trans-N-[6-(6-nitro-2,3-dihydro-1H-indol-1-yl)-9H-purin-2-yl]-1,4-cyclohexanediamine] | 0.02

Continued, values first:

Row | IC50 [µM] | SMILES
7 | 0.95 | N[C@H]1CC[C@H](Nc2nc(N3CCc4cc(NC(=O)Cc5cccs5)ccc43)c3nc[nH]c3n2)CC1 [Example 41, Trans-N-[1-[2-[(4-aminocyclohexyl)amino]-9H-purin-6-yl]-2,3-dihydro-1H-indol-5-yl]-2-thiopheneacetamide]
8 | 3.6 | N[C@H]1CC[C@H](Nc2nc(N3CCc4cc(Cl)ccc43)c3nc[nH]c3n2)CC1 [Example 7, Trans-N-[6-(5-chloro-2,3-dihydro-1H-indol-1-yl)-9H-purin-2-yl]-1,4-cyclohexanediamine]
9 | 2 | Nc1ccc2c(c1)CCN2c1nc(N[C@H]2CC[C@H](N)CC2)nc2[nH]cnc12 [Example 46, Trans-N-[6-(5-amino-2,3-dihydro-1H-indol-1-yl)-9H-purin-2-yl]-1,4-cyclohexanediamine]
10 | 3.3 | N[C@H]1CC[C@H](Nc2nc(N3CCc4cc(NC(=O)CCc5ccccc5)ccc43)c3nc[nH]c3n2)CC1 [Example 42, Trans-N-[1-[2-[(4-aminocyclohexyl)amino]-9H-purin-6-yl]-2,3-dihydro-1H-indol-5-yl]benzenepropanamide]
